Experimental findings from BindingDB's records for doi:10.1021/jm00110a015 (Virginia Commonwealth University, 1991) are described below.

Experiment [1] is described as follows: In vitro binding affinity at PCP binding site of sigma-opioid receptors using (+)-[3H]-MK-801 as radioligand.
Experiment [2] can be described thus: Inhibition of [3H]DTG binding to Sigma opioid receptor.

Molecules are shown by their SMILES.

For orientation: IC50 means the point on the concentration scale where inhibition reaches its midpoint. Read a low IC50 as greater potency. `COc1ccc(CC(C)NCCCc2ccccc2)cc1` (configuration not stated) returned a concentration for half-maximal inhibition (IC50) in experiment [1] above 10000 nM.
Still for that read-out and setting: under `CC(Cc1ccc(I)cc1)NCCCc1ccccc1` (configuration not stated) stands above 10000 nM.
By Ki is commonly meant the equilibrium dissociation constant of an inhibitor or competing ligand from its target. Low values mean tighter binding, high ones weaker binding. In experiment [2], `CCCc1ccc(CC(C)NCCCc2ccccc2)cc1` (configuration not stated) yielded an inhibition constant (Ki) of 6.2 nM.
The same measure, in the same setting: under `c1ccc(CCCNC2Cc3ccccc3C2)cc1` stands 27 nM; under `c1ccc(CCCNC2CCCc3ccccc3C2)cc1` (configuration not stated), 83 nM; under `CC(Cc1cccc(C(F)(F)F)c1)NCCCc1ccccc1` (configuration not stated), 3.9 nM.
The same measure, in the same setting: next, `CC(Cc1cccc(Br)c1)NCCCc1ccccc1` (configuration not stated): 6 nM.
